The results in this text go back to PMC10600247, “Impact of C- and N-terminal protection on the stability, metal chelation and antimicrobial properties of calcitermin” (Scientific Reports, 2023).

“And” between values parts separate entries of the source, which are not always exact repeats. Equal values may be shown once.

In one assay the test system is C. albicans (ATCC 10231). The assay can be described thus: In vitro antifungal CFU assay. Conditions: pH 5.4. Format: cell-based, Candida albicans. How it is done:
(§1) All microbes were grown at 37 °C in Tryptic Soy Broth (TSB; Biolife, Milan, Italy) or Tryptic Soy Agar plates (TSA, Biolife, Milan, Italy). Peptides were tested at a final concentration C = 0.128, 0.064, 0.032 mg/mL, in the presence or absence of ZnCl2 or CuCl2, at a M:L molar ratio 0.9:1. Briefly, all the microbes were expanded in TSB at 37 °C under agitation for 12 h and then sub-cultured by 1:10 dilution in TSB under the same conditions until reaching OD600nm = 0.3–0.4, as measured by spectrophotometric reading using a GENESYS 10S UV–Vis spectrophotometer (Thermo Scientific, Milan, Italy), corresponding to 0.9–1.2 × 10^7 colony forming units (CFU) per mL, 1.5–2 × 10^8 CFU/mL and 2.4–3.2 × 10^8 CFU/mL, for C. albicans, S. aureus and E. coli respectively. The cultures were then centrifuged at 4500 rpm for 10 min in a SL 8 centrifuge (TX-150 Rotor) (Thermo Scientific, Milan, Italy), and the cellular pellets were washed with PBS pH 5.4. Pelletized cultures were then suspended in 10 mL of PBS pH 5.4, then the suspensions were diluted to a final concentration of 10^4 CFU/mL. Aliquots of 100 µl (corresponding to 10^3 CFU) were seeded in each well of a 96-wells plate. 3 µl of TSB at pH 5.4 were added to each well to obtain a final 1.5% TSB concentration in the culture medium. Peptides were serially diluted in PBS pH 5.4 to C = 0.257, 0.128, and 0.064 mg/mL. ZnCl2 and CuCl2 solutions were added where requested to obtain a M:L ratio 0.9:1. 100 µl of the prepared peptides ± ZnCl2/CuCl2 solutions were then added to each well, obtaining the final 0.128, 0.064 and 0.032 mg/mL peptide concentrations in a total 0.2 mL volume. PBS alone and PBS + ZnCl2/CuCl2 solutions were included as controls. The plates were incubated at 37 °C on a platform rocker with slow stirring for 3 and 24 h. At the end of the incubation times, 100 µl aliquots were taken from each sample and diluted in PBS pH 5.4 to be seeded on TSA plates. Specifically, aliquots were diluted 1:10 at 3 h, and 1:200, 1:100,000 and 1:10 at 24 h, for C. albicans, E. coli, and S. aureus respectively. After incubation for 24 h at 37 °C, grown CFUs were enumerated. Samples were assayed in triplicate in two independent experiments. Student’s t-test was used for the evaluation of significance in biological tests; a p value ≤ 0.05 was considered significant.

Another assay has as its system E. coli (ATCC 25922). The assay can be described thus: In vitro anti-E. coli CFU assay. Format: cell-based, Escherichia coli. Particulars: pH 5.4; for CFU decrease/increase with respect to untreated controls / mean CFU number ± S.D.: metal salt alone, one value per peptide panel. As for the experimental part: as §1
A further assay relates to S. aureus (ATCC 25293). The assay can be described thus: In vitro anti-S. aureus CFU assay. Particulars: 3 h, pH 5.4; for mean CFU number ± S.D.: metal salt alone, one value per peptide panel. Format: cell-based, Staphylococcus aureus. As for the experimental part:
as §1

Setting [1] is: metal salt alone, same concentration as used with 0.032 mg/mL peptide, 24 h, one value per peptide panel.
Where [2] appears, read: metal salt alone, same concentration as used with 0.064 mg/mL peptide, 24 h, one value per peptide panel.
The mark [3] stands for this setting: same concentration as used with 0.032 mg/mL peptide, 3 h.
[4] abbreviates: same concentration as used with 0.032 mg/mL peptide, 24 h.
Setting [5] is: same concentration as used with 0.064 mg/mL peptide, 3 h.
Setting [6] is: same concentration as used with 0.064 mg/mL peptide, 24 h.
Setting [7] is: same concentration as used with 0.128 mg/mL peptide, 3 h.
Setting [8] is: same concentration as used with 0.032 mg/mL peptide.
Setting [9] is: same concentration as used with 0.064 mg/mL peptide.

`[Cl][Cu][Cl]` [CuCl2, reference compound]: the “mean CFU number ± S.D.” value with C. albicans (ATCC 10231) (setting [1]) was 2,184 ± 195 CFU and 1,671 ± 25 CFU and 2,558 ± 367 CFU and 1,800 ± 195 CFU; with C. albicans (ATCC 10231) (setting [2]), 2,152 ± 228 CFU and 1,697 ± 81 CFU and 2,456 ± 236 CFU and 1,820 ± 125 CFU; in the assay with C. albicans (ATCC 10231) (metal salt alone, same concentration as used with 0.128 mg/mL peptide, 24 h, one value per peptide panel), 1,816 ± 109 CFU and 2,139 ± 55 CFU and 1,360 ± 68 CFU and 1,946 ± 96 CFU; with E. coli (ATCC 25922) (setting [3]), 474 ± 91 CFU and 665 ± 96 CFU; in the assay on E. coli (ATCC 25922) (setting [4]) it was 160 ± 42 CFU and 256 ± 3 CFU; with E. coli (ATCC 25922) (setting [5]), 255 ± 23 CFU and 383 ± 82 CFU. In addition, the “mean CFU number ± S.D.” value in the assay with E. coli (ATCC 25922) (setting [6]) was 93 ± 28 CFU and 47 ± 28 CFU; in the assay with E. coli (ATCC 25922) (setting [7]) it was 57 ± 4 CFU and 64 ± 24 CFU; in the assay with S. aureus (ATCC 25293) (setting [8]), 201 ± 25 CFU and 178 ± 2 CFU; with S. aureus (ATCC 25293) (setting [9]), 170 ±17 CFU and 188 ± 62 CFU; with S. aureus (ATCC 25293) (same concentration as used with 0.128 mg/mL peptide), 201 ± 23 CFU and 159 ± 22 CFU. Also, the “CFU number reduction by the metal salt alone, over all performed assays” value with E. coli (ATCC 25922) (3 h) and in the assay on E. coli (ATCC 25922) (24 h) was “up to 96%” in each case. In addition, the “CFU decrease/increase with respect to untreated controls” value in the assay on E. coli (ATCC 25922) (setting [3]) is -36% and -42%; in the assay with E. coli (ATCC 25922) (setting [7]), -95% and -92%.
With `[Cl-].[Cl-].[Zn+2]` [ZnCl2, reference compound], the “CFU number reduction by the metal salt alone, over all performed assays” value was “up to 64.9%” with C. albicans (ATCC 10231) (3 h) and no more than 94% with C. albicans (ATCC 10231) (24 h). The “mean CFU number ± S.D.” value in the assay with C. albicans (ATCC 10231) (metal salt alone, same concentration as used with 0.032 mg/mL peptide, 3 h, one value per peptide panel) is 94.2 ± 23 CFU and 91 ± 25 CFU and 107 ± 13 CFU; in the assay with C. albicans (ATCC 10231) (setting [1]), 1,915 ± 234 CFU and 1,797 ± 162 CFU and 2,249 ± 145 CFU and 1,413.7 ± 348 CFU; in the assay on C. albicans (ATCC 10231) (metal salt alone, same concentration as used with 0.064 mg/mL peptide, 3 h, one value per peptide panel) it was 49 ± 2 CFU and 87 ± 6 CFU and 75.33 ± 25 CFU and 98 ± 15 CFU; in the assay with C. albicans (ATCC 10231) (metal salt alone, same concentration as used with 0.128 mg/mL peptide, 3 h, one value per peptide panel), 32 ± 9 CFU and 62 ± 6 CFU and 53 ± 14 CFU and 34.7 ± 9 CFU; in the assay on E. coli (ATCC 25922) (setting [3]), 449 ± 74 CFU and 559 ± 25 CFU; in the assay on E. coli (ATCC 25922) (setting [4]), 170 ± 14 CFU and 238 ± 16 CFU. For the same compound, the “mean CFU number ± S.D.” value in the assay on E. coli (ATCC 25922) (setting [5]) is 249 ± 11 CFU and 329 ± 11 CFU; in the assay on E. coli (ATCC 25922) (setting [6]) it was 163 ± 47 CFU and 235 ± 6 CFU; in the assay on E. coli (ATCC 25922) (setting [7]), 49 ± 8 CFU and 72 ± 21 CFU; in the assay on E. coli (ATCC 25922) (same concentration as used with 0.128 mg/mL peptide, 24 h), 168 ± 22 CFU; with S. aureus (ATCC 25293) (setting [8]), 178 ± 60 CFU and 121 ± 11 CFU and 125 ± 60 CFU; with S. aureus (ATCC 25293) (setting [9]), 84 ± 13 CFU and 100 ± 11 CFU. Moreover, the “CFU decrease/increase with respect to untreated controls” value was -36% and -40% and -38% in the assay with C. albicans (ATCC 10231) (setting [2]); -47% and -45% in the assay with E. coli (ATCC 25922) (setting [3]); -1% in the assay on E. coli (ATCC 25922) (setting [4]); -3% and -5% with E. coli (ATCC 25922) (setting [6]); -95% and -91% in the assay on E. coli (ATCC 25922) (setting [7]). Moreover, the “CFU reduction by the metal salt alone compared to controls, over all performed assays” value with S. aureus (ATCC 25293) is “up to 77%”.
